Source: US7456167B2, “Cyclopropyl fused indolobenzazepine HCV NS5B inhibitors” (Bristol-Myers Squibb Company, priority 2006, dated 2008)
Read-outs that look alike come from different tables or passages of the source.

Legend:
HCV replicon cells = assay: HCV replicon FRET assay; assay type: cell-based; settings: Hepatitis C virus
Excerpt: FRET Assay Preparation. To perform the HCV FRET screening assay, 96-well cell culture plates were used. The FRET peptide (Anaspec, Inc.) (Taliani et al., Anal. Biochem. 1996, 240, 60-67) contains a fluorescence donor, EDANS, near one end of the peptide and an acceptor, DABCYL, near the other end. The fluorescence of the peptide is quenched by […] resonance energy transfer (RET) between the donor and the acceptor, but as the NS3 protease cleaves the peptide the products are released from RET quenching and the fluorescence of the donor becomes apparent. The assay reagent was made as follows: 5× cell Luciferase cell culture lysis reagent from Promega (#E153A) diluted to 1× with dH2O, NaCl added to 150 mM final, the FRET peptide diluted to 20 uM final from a 2 mM stock.
To prepare plates, HCV replicon cells, with or without a Renilla luciferase reporter gene, were trypsinized and placed into each well of a 96-well plate with titrated test compounds added in columns 3 through 12; columns 1 and 2 contained a control compound (HCV protease inhibitor), and the bottom row contained cells without compound. The plates were then placed in a CO2 incubator at 37° C.
Assays. Subsequent to addition of the test compounds described above (FRET Assay Preparation), at various times the plate was removed and Alamar blue solution (Trek Diagnostics, #00-100) was added per well as a measure of cellular toxicity. After reading in a Cytoflour 4000 instrument (PE Biosystems), plates were rinsed with PBS and then used for FRET assay by the addition of 30 ul of the FRET peptide assay reagent described above (FRET Assay Preparation) per well. The plate was then placed into the Cytoflour 4000 instrument which had been set to 340 excite/490 emission, automatic mode for 20 cycles and the plate read in a kinetic mode. Typically, the signal to noise using an endpoint analysis after the reads was at least three-fold. Alternatively, after Alamar blue reading, plates were rinsed with PBS, 50 ul of DMEM (high glucose) without phenol red was added and plates were then used for luciferase assay using the Promega Dual-Glo Luciferase Assay System.
Compound analysis was determined by quantification of the relative HCV replicon inhibition and the relative cytotoxicity values. To calculate cytoxicity values, the average Alamar Blue fluorescence signals from the control wells were set as 100% non-toxic. The individual signals in each of the compound test wells were then divided by the average control signal and multiplied by 100% to determine […]. To calculate the HCV replicon inhibition values, an average background value was obtained from the two wells containing the highest amount of HCV protease inhibitor at the end of the assay period. These numbers were similar to those obtained from naïve Huh-7 cells.
The background numbers were then subtracted from the average signal obtained from the control wells and this number was used as 100% activity. The individual signals in each of the compound test wells were then divided by the averaged control values after background subtraction and multiplied by 100% to determine percent activity. EC50 values for a protease inhibitor titration were calculated as the concentration which caused a 50% reduction in FRET or luciferase activity. The two numbers generated for the compound plate, percent cytoxicity and percent activity were used to determine compounds of interest for further analysis.

[1] = biological target: T1, HCV NS5B RdRp genotype 1b (Hepatitis C virus genotype 1b, UniProt Q9WMX2); assay: Modified HCV NS5B RdRp enzyme assay (preincubation protocol); assay type: biochemical
T1 construct: The protein was expressed with an 18 amino acid C-terminal truncation to enhance the solubility; made in house; host or cells: E. coli BL21(DE3)
Procedure: HCV NS5B RdRp cloning, expression, and purification. The cDNA encoding the NS5B protein of HCV, genotype 1b, was cloned into the pET21a expression vector. The protein was expressed with an 18 amino acid C-terminal truncation to enhance the solubility. The E. coli competent cell line BL21(DE3) was used for expression of the protein. Cultures were grown at 37° C. for ˜4 hours until the cultures reached an optical density of 2.0 at 600 nm. The cultures were cooled to 20° C. and induced with 1 mM IPTG. Fresh ampicillin was added to a final concentration of 50 μg/ml and the cells were grown overnight at 20° C.
Cell pellets (3 L) were lysed for purification to yield 15-24 mgs of purified NS5B. The lysis buffer consisted of 20 mM Tris-HCl, pH 7.4, 500 mM NaCl, 0.5% triton X-100, 1 mM DTT, 1 mM EDTA, 20% glycerol, 0.5 mg/ml lysozyme, 10 mM MgCl2, 15 ug/ml deoxyribonuclease I, and Complete TM protease inhibitor tablets (Roche). After addition of the lysis buffer, frozen cell pellets were resuspended using a tissue homogenizer. To reduce the viscosity of the sample, aliquots of the lysate were sonicated on ice using a microtip attached to a Branson sonicator. The sonicated lysate was centrifuged at 100,000×g for 1 hr at 4° C. and filtered through a 0.2 μm filter unit (Corning).
The protein was purified using three sequential chromatography steps: Heparin sepharose CL-6B, polyU sepharose 4B, and Hitrap SP sepharose (Pharmacia). The chromatography buffers were identical to the lysis buffer but contained no lysozyme, deoxyribonuclease I, MgCl2 or protease inhibitor and the NaCl concentration of the buffer was adjusted according to the requirements for charging the protein onto the column. Each column was eluted with a NaCl gradient which varied in length from 5-50 column volumes depending on the column type. After the final chromatography step, the resulting purity of the enzyme is >90% based on SDS-PAGE analysis. The enzyme was aliquoted and stored at −80° C.
Standard HCV NS5B RdRp enzyme assay. HCV RdRp genotype 1b assays were run in a final volume of 60 μl in 96 well plates (Costar 3912). The assay buffer is composed of 20 mM Hepes, pH 7.5, 2.5 mM KCl, 2.5 mM MgCl2, 1 mM DTT, 1.6 U RNAse inhibitor (Promega N2515), 0.1 mg/ml BSA (Promega R3961), and 2% glycerol. All compounds were serially diluted (3-fold) in DMSO and diluted further in water such that the final concentration of DMSO in the assay was 2%. HCV RdRp genotype 1b enzyme was used at a final concentration of 28 nM. A polyA template was used at 6 nM, and a biotinylated oligo-dT12 primer was used at 180 nM final concentration. Template was obtained commercially (Amersham 27-4110). Biotinylated primer was prepared by Sigma Genosys. 3H-UTP was used at 0.6 μCi (0.29 μM total UTP). Reactions were initiated by the addition of enzyme, incubated at 30° C. for 60 min, and stopped by adding 25 μl of 50 mM EDTA containing SPA beads (4 μg/μl, Amersham RPNQ 0007). Plates were read on a Packard Top Count NXT after >1 hr incubation at room temperature.
Modified HCV NS5B RdRp enzyme assay. A modified enzyme assay was performed essentially as described for the standard enzyme assay except for the following: The biotinylated oligo dT12 primer was precaptured on streptavidin-coated SPA beads by mixing primer and beads in assay buffer and incubating at room temperature for one hour. Unbound primer was removed after centrifugation. The primer-bound beads were resuspended in 20 mM Hepes buffer, pH 7.5 and used in the assay at final concentrations of 20 nM primer and 0.67 μg/μl beads. Order of addition in the assay: enzyme (14 nM) was added to diluted compound followed by the addition of a mixture of template (0.2 nM), 3H-UTP (0.6 μCi, 0.29 μM), and primer-bound beads, to initiate the reaction; concentrations given are final. Reactions were allowed to proceed for 4 hours at 30° C.
IC50 values for compounds were determined using seven different [I]. […]

[2] = HCV replicon cells, FRET assay, read-out: EC50
[3] = HCV NS5B RdRp genotype 1b, preincubation protocol, read-out: IC50

T1 sequence (Q9WMX2 2420-2992): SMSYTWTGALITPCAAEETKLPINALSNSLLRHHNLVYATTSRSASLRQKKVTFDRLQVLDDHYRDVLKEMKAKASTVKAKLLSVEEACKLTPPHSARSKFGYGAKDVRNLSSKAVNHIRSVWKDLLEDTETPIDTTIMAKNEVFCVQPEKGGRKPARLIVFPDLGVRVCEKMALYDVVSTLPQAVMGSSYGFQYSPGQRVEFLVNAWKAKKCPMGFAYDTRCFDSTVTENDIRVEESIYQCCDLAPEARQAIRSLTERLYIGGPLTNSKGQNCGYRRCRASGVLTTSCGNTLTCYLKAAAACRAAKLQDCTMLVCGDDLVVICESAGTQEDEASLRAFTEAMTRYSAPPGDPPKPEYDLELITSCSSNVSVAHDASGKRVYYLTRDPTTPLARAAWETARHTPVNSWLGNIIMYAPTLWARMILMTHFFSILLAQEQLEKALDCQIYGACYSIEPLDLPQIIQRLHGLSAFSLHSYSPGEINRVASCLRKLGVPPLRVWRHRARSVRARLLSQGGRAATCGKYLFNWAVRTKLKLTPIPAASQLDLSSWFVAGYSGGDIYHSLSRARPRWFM

Row | Compound | EC50 (HCV replicon cells; [2]) | IC50 [1, 3] | EC50 (HCV replicon cells) | IC50 [1]
1 | COc1ccc2c(c1)C1CC1(S(=O)(=O)N1C[C@@H](C)N(C)[C@@H](C)C1)Cn1c-2c(C2CCCCC2)c2ccc(C(=O)NS(=O)(=O)C(C)C)cc21 (stereo partly shown) | 0.02 to 1 µM | 0.02 to 1 µM | – | –
2 | COc1ccc2c(c1)C1CC1(S(=O)(=O)N1CC(C)(O)C1)Cn1c-2c(C2CCCCC2)c2ccc(C(=O)O)cc21 (stereo not shown) | 0.02 to 1 µM | 0.02 to 1 µM | – | –
3 | COc1ccc2c(c1)C1CC1(S(=O)(=O)N(C)C)Cn1c-2c(C2CCCCC2)c2ccc(C(=O)NS(=O)(=O)N(C)C)cc21 (stereo not shown) | 0.02 to 1 µM | 0.02 to 1 µM | – | –
4 | COc1ccc2c(c1)C1CC1(S(=O)(=O)N1C[C@@H](C)N(C)[C@@H](C)C1)Cn1c-2c(C2CCCCC2)c2ccc(C(=O)NS(=O)(=O)N3CCC3)cc21 (stereo partly shown) | 0.02 to 1 µM | 0.02 to 1 µM | – | –
5 | COc1ccc2c(c1)C1CC1(S(=O)(=O)N1CCCC1)Cn1c-2c(C2CCCCC2)c2ccc(C(=O)NS(=O)(=O)C(C)C)cc21 (stereo not shown) | 0.02 to 1 µM | 0.02 to 1 µM | – | –
6 | COc1ccc2c(c1)C1CC1(S(=O)(=O)N1C[C@@H](C)N(C)[C@@H](C)C1)Cn1c-2c(C2CCCCC2)c2ccc(C(=O)NS(=O)(=O)N(C)C)cc21 (stereo partly shown) | 0.02 to 1 µM | 0.02 to 1 µM | – | –
7 | COc1ccc2c(c1)C1CC1(S(=O)(=O)N1CCN3CCC1CC3)Cn1c-2c(C2CCCCC2)c2ccc(C(=O)NS(=O)(=O)C(C)C)cc21 (stereo not shown) | 0.02 to 1 µM | 0.02 to 1 µM | – | –
8 | COc1ccc2c(c1)C1CC1(S(=O)(=O)N1C3CCC1CN(C)C3)Cn1c-2c(C2CCCCC2)c2ccc(C(=O)NS(=O)(=O)N(C)C)cc21 (stereo not shown) | – | – | 0.02 to 1 µM | 0.02 to 1 µM
9 | CCS(=O)(=O)C1Cc2ccccc2-c2c(C3CCCCC3)c3ccc(C(=O)O)cc3n2C1 (stereo not shown) | 0.02 to 1 µM | 0.02 to 1 µM | – | –
10 | COc1ccc2c(c1)C1CC1(S(=O)(=O)N1CCC[C@H]3CN(Cc4ccccc4)C[C@H]31)Cn1c-2c(C2CCCCC2)c2ccc(C(=O)NS(=O)(=O)N3CCOCC3)cc21 (stereo partly shown) | 0.02 to 1 µM | 0.02 to 1 µM | – | –
11 | COc1ccc2c(c1)C1CC1(S(=O)(=O)N1CCN3CCCC3C1)Cn1c-2c(C2CCCCC2)c2ccc(C(=O)NS(=O)(=O)N(C)C)cc21 (stereo not shown) | 0.02 to 1 µM | 0.02 to 1 µM | – | –
12 | COc1ccc2c(c1)C1CC1(S(=O)(=O)N1CCN(C)CC1)Cn1c-2c(C2CCCCC2)c2ccc(C(=O)NS(=O)(=O)N(C)C)cc21 (stereo not shown) | 0.02 to 1 µM | 0.02 to 1 µM | – | –
13 | COc1ccc2c(c1)C1CC1(S(=O)(=O)N(C)C)Cn1c-2c(C2CCCCC2)c2ccc(C(=O)O)cc21 (stereo not shown) | 0.02 to 1 µM | 1 to 10 µM | – | –
14 | CCS(=O)(=O)NC(=O)c1ccc2c(C3CCCCC3)c3n(c2c1)CC1(S(=O)(=O)N2C[C@@H](C)N(C)[C@@H](C)C2)CC1c1cc(OC)ccc1-3 (stereo partly shown) | 0.02 to 1 µM | 0.02 to 1 µM | – | –
